Measured values taken from patent US8084457B2, “Pharmaceutically active 4,6-disubstituted aminopyrimidine derivatives as modulators of protein kinases” (Lead Discovery Center GmbH, priority 2003, dated 2011).

Legend:
[1] = target: GSK-3β (Homo sapiens, UniProt P49841); test: General kinase assay, selectivity panel: GSK-3β; format: biochemical; conditions: 10 μM of compound, in comparison to DMSO (0% inhibition)
Description: (§1) The inhibitory effect of compounds according to the present invention on the activity of protein kinases, depicted in Table 1, can be measured according to the following protocol:
(§2) Pipettinq Sequence: • 1) Add 10 μl 4 fold concentrated Substrate+4 fold concentrated ATP in 3 fold concentrated Reaction Buffer to each well of Assay Plate • 2) Add 10 μl 4 fold concentrated inhibitor in 4% DMSO in H2O to each well except to C− and C+ wells • 3) Add 10 μl 4% DMSO in H2O to C− and C+ wells • 4) Add 10 μl 500 mM EDTA in H2O to − wells • 5) Add 10 μl 50 μCi/ml Adenosine 5′-[γ-^33P]triphosphate in H2O to each well • 6) Add 10 μl 4 fold concentrated kinase in Reaction Buffer to each well • 7) Incubate 1 hr at room temperature • 8) Add 10 μl 50 mM EDTA in H2O to each well except to C− wells • 9) Prepare MAPH plates by adding 200 μl 0.75% H3PO4 to each well • 10) Exhaust 0.75% H3PO4 using Millipore vacuum station • 11) Add 60 μl 0.75% H3PO4 to each well of MAPH Filter Plate • 12) Transfer 30 μl sample per well from Assay Plate to corresponding well of MAPH Filter Plate • 13) Incubate 30 min at room temperature • 14) Wash each well of MAPH Filter Plates 3× with 200 μl 0.75% H3PO4 using Millipore vacuum station. • 15) Add 20 μl Scintillation Liquid to each well of MAPH Filter Plate • 16) Seal MAPH Filter Plate • 17) Store MAPH Filter Plate 30 min in darkness • 18) Quantify radioactivity
(§3) The activity of these protein kinases is depicted as % inhibition in the presence of 10 μM of compound in comparison to DMSO (0% inhibition).

[2] = test system: PDGFR; test: General kinase assay, selectivity panel: PDGFR; format: biochemical; conditions: 10 μM of compound, in comparison to DMSO (0% inhibition)
Description: as §1, §2, §3

[3] = target: T1, CDK5/p35 (Homo sapiens, UniProt Q00535); test: Kinase assay determining CDK5/p35 activity (selectivity panel); format: biochemical; conditions: 10 μM of compound, in comparison to DMSO (0% inhibition)
T1 construct: purchased Upsate (Upstate)
Description: Kinase Assays Determining CDK2/CyclinA and CDK5/p35 Activity:
Kinase assays were performed as described by the manufacturers recommendations (Proqinase for CDK2/CyclinA and Upsate for CDK5/p35).
as §3

[4] = target: EGFR (Homo sapiens, UniProt P00533); test: General kinase assay, selectivity panel: EGFR; format: biochemical; conditions: 10 μM of compound, in comparison to DMSO (0% inhibition)
Description: as §1, §2, §3

[5] = target: CDK1 (Homo sapiens, UniProt P06493); test: General kinase assay, selectivity panel: CDK1; format: biochemical; conditions: 10 μM of compound, in comparison to DMSO (0% inhibition)
Description: as §1, §2, §3

[6] = target: c-Kit (Homo sapiens, UniProt P10721); test: General kinase assay, selectivity panel: c-Kit; format: biochemical; conditions: 10 μM of compound, in comparison to DMSO (0% inhibition)
Description: as §1, §2, §3

[7] = target: RSK1 (Homo sapiens, UniProt Q15418); test: General kinase assay, selectivity panel: RSK1; format: biochemical; conditions: 10 μM of compound, in comparison to DMSO (0% inhibition)
Description: as §1, §2, §3

[8] = target: p56 Lck (Homo sapiens, UniProt P06239); test: General kinase assay, selectivity panel: p56 Lck; format: biochemical; conditions: 10 μM of compound, in comparison to DMSO (0% inhibition)
Description: as §1, §2, §3

[9] = target: Abl (Homo sapiens, UniProt P00519); test: General kinase assay, selectivity panel: Abl; format: biochemical; conditions: 10 μM of compound, in comparison to DMSO (0% inhibition)
Description: as §1, §2, §3

[10] = target: CDK4 (Homo sapiens, UniProt P11802); test: CDK4 (activity range), Table 2; no method described; format: biochemical
[11] = test system: HBV; test: HBV replication assay in HepG2-2.2.15 cells; format: cell-based
Description: To test anti—HBV-activity of compounds the HBV-producing cell line HepG2-2.2.15 (M. A. Sells, PNAS 1987, 84, 1005-1009) was used. 1.0×10^4 cells were seeded in 96-well microtiter plates in DMEM medium supplemented with 10% FCS. After incubation at 37° C. in 5% CO2 atmosphere for 24 hours the medium was replaced with fresh medium containing the appropriately diluted compound. 3 days later medium was replaced by freshly prepared inhibitor-containing medium and the cells were incubated for further 3 days. Subsequently 200 μl lysis buffer (50 mM Tris-Cl 7.5; 1 mM EDTA 8.0; 0.5% NP40) per well was added. To remove cell debris and […], lysate was centrifuged (15000 rpm, 10 min, 4° C.). Cellular and viral RNA was removed by addition of 2 μl of RNase. 100 μl of the samples were spotted onto an uncharged nylon membrane pre-wetted with PBS (phosphate-buffered saline) using a 96 well-blotting chamber (MINIfold Dot-Blot, Schleicher&Schüll). After further washing with 200 μl PBS per well the membrane was treated twice with 0.5 M NaOH, 1.5 M NaCl (2 min) and 4 times with 0.5 M Tris 7.5, 3 M NaCl (1 min). The nucleic acids were fixed by UV-treatment and used for hybridisabon with a radioactive HBV-fragment prepared from the overgenome-length HBV-plasmid pT-HBV1.3 (L. G. Guidotti et al., Journal of Virology 1995., 69(10), 6158-6169).
The fixed membrane was pre-hybridized in a standard hybridisation buffer (50% formamide, 5×SSPE, 10×Denhards, 1% SDS, 100 μg/ml salmon sperm DNA) for at least 3 hours at 42° C. and hybridised overnight against the labelled HBV-fragment. The preparation of the HBV-fragment with the “Random primers DNA labelling system” (Invitrogen) was done according to the manufacturer's instructions. Hybridized filter were washed at room temperature with 2×SSC, at 62° C. with 2×SSC, 0.5% SDS and at 62° C. with 0.5×SSC, 0.5% SDS. Each washing step was carried out twice. The intensity of the HBV-DNA was quantified using a phosphoimager (Fuji). […] Absorbance was monitored at 570 nm and 600 nm wavelength.

T1 sequence (Q00535 whole entry): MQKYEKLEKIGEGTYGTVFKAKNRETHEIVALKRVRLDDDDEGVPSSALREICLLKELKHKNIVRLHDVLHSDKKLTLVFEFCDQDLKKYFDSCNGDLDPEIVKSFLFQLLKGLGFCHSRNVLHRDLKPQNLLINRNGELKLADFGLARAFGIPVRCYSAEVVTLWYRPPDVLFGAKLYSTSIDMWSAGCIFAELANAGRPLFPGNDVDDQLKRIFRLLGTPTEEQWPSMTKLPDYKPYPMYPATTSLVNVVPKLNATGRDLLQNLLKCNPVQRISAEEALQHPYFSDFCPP
T1 sequence (Q15078 whole entry partner): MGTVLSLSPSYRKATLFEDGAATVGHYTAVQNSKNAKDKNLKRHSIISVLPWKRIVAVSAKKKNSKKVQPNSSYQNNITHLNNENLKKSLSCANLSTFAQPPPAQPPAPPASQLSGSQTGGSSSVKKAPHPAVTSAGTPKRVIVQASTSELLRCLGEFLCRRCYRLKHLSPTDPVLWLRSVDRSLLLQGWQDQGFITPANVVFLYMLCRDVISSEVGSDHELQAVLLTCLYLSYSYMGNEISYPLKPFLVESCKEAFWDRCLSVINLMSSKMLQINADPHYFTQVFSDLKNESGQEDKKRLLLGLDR
c-Kit, sequence (P10721 26-976): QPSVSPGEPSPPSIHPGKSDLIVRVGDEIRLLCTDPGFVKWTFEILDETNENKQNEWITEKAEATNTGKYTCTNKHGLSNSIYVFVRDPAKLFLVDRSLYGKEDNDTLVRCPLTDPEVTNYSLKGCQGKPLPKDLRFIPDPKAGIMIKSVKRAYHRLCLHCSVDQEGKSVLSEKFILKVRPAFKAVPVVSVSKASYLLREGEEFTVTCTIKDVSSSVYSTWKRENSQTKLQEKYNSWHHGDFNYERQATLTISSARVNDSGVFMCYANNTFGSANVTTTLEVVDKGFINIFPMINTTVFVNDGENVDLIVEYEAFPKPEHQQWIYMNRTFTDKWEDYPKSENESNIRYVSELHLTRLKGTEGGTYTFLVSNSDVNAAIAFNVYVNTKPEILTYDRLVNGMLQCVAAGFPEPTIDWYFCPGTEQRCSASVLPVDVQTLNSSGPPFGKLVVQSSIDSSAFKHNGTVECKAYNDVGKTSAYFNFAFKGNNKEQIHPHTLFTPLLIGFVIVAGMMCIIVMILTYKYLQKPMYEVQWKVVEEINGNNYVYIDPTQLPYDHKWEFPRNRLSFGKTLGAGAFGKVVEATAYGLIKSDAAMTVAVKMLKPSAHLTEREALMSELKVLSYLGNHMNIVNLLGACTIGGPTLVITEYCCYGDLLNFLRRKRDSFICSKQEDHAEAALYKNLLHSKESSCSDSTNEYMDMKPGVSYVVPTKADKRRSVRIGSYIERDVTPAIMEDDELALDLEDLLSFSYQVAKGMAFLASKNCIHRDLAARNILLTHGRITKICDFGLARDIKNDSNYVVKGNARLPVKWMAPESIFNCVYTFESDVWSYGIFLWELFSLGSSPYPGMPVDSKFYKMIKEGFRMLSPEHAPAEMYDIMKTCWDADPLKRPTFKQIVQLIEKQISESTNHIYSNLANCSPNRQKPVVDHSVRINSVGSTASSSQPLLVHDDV
Abl, sequence (P00519 whole entry, species assumed): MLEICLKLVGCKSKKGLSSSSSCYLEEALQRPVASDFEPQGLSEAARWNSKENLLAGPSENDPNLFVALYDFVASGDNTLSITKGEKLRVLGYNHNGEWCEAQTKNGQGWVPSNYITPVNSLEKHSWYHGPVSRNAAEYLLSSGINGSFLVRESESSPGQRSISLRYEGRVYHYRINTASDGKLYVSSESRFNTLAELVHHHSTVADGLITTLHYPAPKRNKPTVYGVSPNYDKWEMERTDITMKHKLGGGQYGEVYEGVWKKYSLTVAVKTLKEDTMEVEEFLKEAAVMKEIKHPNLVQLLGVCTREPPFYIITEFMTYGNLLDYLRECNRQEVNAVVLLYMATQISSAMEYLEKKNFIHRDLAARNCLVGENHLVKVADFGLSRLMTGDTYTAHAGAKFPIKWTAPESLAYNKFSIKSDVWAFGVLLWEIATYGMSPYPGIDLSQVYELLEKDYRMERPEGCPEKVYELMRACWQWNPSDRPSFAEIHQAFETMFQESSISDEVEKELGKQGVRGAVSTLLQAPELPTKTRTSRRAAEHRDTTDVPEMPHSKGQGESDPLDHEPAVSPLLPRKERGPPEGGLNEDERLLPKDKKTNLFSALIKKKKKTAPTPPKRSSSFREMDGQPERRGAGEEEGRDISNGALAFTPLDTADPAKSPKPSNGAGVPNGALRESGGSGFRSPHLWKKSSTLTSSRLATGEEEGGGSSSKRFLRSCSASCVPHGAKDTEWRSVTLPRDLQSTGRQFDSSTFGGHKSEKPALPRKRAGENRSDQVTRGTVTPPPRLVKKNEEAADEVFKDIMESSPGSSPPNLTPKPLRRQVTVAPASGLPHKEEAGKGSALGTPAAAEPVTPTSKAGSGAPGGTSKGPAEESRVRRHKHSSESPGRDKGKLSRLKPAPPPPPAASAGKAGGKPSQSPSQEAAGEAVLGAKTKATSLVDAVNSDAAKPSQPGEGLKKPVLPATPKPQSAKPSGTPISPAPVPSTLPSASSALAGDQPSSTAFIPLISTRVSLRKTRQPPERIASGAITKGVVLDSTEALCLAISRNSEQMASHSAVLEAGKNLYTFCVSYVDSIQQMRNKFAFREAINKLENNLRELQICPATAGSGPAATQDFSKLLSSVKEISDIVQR
CDK4, sequence (P11802 whole entry, species assumed): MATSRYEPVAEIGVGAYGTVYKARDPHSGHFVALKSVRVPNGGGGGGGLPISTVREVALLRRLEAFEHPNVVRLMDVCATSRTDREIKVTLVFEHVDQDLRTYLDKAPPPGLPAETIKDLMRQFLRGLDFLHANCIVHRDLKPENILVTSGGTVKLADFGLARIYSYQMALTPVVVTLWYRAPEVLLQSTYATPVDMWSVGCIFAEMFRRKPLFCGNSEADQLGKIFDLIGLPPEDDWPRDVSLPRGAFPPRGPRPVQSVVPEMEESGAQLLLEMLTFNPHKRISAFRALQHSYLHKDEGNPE
CDK4, sequence (P24385 whole entry partner, species assumed): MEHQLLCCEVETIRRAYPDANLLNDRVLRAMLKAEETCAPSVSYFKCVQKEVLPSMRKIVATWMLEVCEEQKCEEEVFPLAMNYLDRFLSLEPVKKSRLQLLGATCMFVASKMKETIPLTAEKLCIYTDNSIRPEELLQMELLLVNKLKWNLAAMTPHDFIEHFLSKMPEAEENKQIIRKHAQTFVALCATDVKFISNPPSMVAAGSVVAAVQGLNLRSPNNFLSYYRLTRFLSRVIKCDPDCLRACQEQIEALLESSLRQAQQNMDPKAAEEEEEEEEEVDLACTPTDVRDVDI
p56 Lck, sequence (P06239 whole entry): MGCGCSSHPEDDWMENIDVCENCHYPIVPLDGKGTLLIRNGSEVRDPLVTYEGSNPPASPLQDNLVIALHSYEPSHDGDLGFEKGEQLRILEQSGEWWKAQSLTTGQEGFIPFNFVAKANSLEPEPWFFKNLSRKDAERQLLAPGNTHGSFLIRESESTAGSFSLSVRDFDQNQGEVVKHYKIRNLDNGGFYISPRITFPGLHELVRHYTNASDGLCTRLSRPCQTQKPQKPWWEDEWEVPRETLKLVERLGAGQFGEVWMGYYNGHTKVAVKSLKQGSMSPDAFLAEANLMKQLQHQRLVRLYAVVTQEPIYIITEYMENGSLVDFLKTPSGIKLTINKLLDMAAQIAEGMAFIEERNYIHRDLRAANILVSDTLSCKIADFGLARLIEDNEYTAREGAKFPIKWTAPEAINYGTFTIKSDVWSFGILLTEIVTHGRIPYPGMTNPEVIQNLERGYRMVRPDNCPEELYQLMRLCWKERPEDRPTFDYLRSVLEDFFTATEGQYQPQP
GSK-3β, sequence (P49841 whole entry, species assumed): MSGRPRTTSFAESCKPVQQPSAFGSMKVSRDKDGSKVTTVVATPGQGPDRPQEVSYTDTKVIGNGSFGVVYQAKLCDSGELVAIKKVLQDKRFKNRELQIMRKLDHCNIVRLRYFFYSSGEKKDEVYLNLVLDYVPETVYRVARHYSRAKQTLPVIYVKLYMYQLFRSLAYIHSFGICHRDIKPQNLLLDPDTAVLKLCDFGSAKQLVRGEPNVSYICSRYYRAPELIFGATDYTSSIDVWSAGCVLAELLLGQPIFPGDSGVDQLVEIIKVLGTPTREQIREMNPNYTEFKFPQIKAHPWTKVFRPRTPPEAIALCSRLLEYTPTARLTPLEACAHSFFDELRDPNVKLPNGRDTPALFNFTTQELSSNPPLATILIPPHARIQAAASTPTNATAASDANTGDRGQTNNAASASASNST
CDK1, sequence (P06493 whole entry, species assumed): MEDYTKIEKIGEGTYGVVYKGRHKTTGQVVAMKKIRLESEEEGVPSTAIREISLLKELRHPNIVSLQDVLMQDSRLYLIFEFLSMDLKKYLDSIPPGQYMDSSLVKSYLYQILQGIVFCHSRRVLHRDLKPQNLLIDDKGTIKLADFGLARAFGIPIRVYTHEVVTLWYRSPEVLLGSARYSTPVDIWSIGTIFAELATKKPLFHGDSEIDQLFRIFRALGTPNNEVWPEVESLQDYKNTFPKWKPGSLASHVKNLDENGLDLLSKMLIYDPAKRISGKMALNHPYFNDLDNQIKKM
CDK1, sequence (P14635 whole entry partner, species assumed): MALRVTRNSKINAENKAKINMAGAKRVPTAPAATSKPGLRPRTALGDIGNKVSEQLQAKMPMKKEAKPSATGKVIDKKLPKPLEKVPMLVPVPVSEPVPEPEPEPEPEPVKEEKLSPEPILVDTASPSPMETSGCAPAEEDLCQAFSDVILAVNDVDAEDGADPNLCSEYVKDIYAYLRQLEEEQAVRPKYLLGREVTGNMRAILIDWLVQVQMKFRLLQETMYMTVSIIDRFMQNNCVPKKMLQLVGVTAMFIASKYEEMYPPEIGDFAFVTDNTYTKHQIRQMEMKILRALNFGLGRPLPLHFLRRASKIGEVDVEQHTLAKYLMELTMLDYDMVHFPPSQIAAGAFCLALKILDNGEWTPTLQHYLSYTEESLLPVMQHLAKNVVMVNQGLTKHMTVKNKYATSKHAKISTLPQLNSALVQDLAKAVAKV

SMILES	PDGFR (% inhibition) [2]	EGFR (% inhibition) [4]	CDK1 (% inhibition) [5]	IC50 [10]	further results
Cc1ccc(Nc2cc(-c3cccc(N)c3)ncn2)cc1NS(=O)(=O)c1ccccc1 [Compound 109]	c (inhibition between 50 and 30%: c)	b (inhibition between 80 and 50%: b)	a (inhibition greater than 80%: a)	–	GSK-3β (% inhibition) [1]: a (inhibition greater than 80%: a); CDK5 (% inhibition) [3]: a (inhibition greater than 80%: a)
COc1ccccc1-c1cc(Nc2ccc(NC(=O)c3cn(C)cn3)cc2)ncn1 [Compound 70]	b (inhibition between 80 and 50%: b)	b (inhibition between 80 and 50%: b)	a (inhibition greater than 80%: a)	–	GSK-3β (% inhibition) [1]: b (inhibition between 80 and 50%: b); c-Kit (% inhibition) [6]: b (inhibition between 80 and 50%: b); RSK1 (% inhibition) [7]: b (inhibition between 80 and 50%: b); p56 Lck (% inhibition) [8]: b (inhibition between 80 and 50%: b); Abl (% inhibition) [9]: c (inhibition between 50 and 30%: c)
CCN(CC)CCC(=O)Nc1ccc(Nc2cc(-c3ccccc3OC)ncn2)cc1 [Compound 64]	b (inhibition between 80 and 50%: b)	a (inhibition greater than 80%: a)	a (inhibition greater than 80%: a)	–	GSK-3β (% inhibition) [1]: c (inhibition between 50 and 30%: c); c-Kit (% inhibition) [6]: b (inhibition between 80 and 50%: b); p56 Lck (% inhibition) [8]: b (inhibition between 80 and 50%: b); Abl (% inhibition) [9]: b (inhibition between 80 and 50%: b)
CN(C)c1ccccc1-c1cc(Nc2ccc(C(=O)N[C@@H]3CCCC[C@H]3N)cc2)ncn1 [Compound 233]	–	–	–	1 to 10 µM	–
COc1ccccc1-c1cc(Nc2ccc3cnn(C)c3c2)ncn1 [Compound 353]	–	–	–	1 to 10 µM	–
CCN(CC)CCNC(=O)c1ccc(Nc2cc(-c3ccccc3OC)ncn2)cc1 [Compound 217]	–	–	–	1 to 10 µM	–
COc1ccccc1-c1cc(Nc2ccc(CCO)cc2)ncn1 [Compound 351]	–	–	–	1 to 10 µM	–
COc1ccccc1-c1cc(Nc2ccc3c(c2)S(=O)(=O)C=C3)ncn1 [Compound 342]	–	–	–	10 to 250 µM	–
COc1ncccc1-c1cc(Nc2ccc(C(=O)N[C@@H]3CCCC[C@H]3N)cc2)ncn1 [Compound 219]	–	–	–	10 to 250 µM	–
CN[C@H](C(=O)Nc1ccc(Nc2cc(-c3ccccc3OC)ncn2)cc1)c1ccccc1 [Compound 82]	c (inhibition between 50 and 30%: c)	a (inhibition greater than 80%: a)	b (inhibition between 80 and 50%: b)	–	GSK-3β (% inhibition) [1]: c (inhibition between 50 and 30%: c); CDK5 (% inhibition) [3]: b (inhibition between 80 and 50%: b); Abl (% inhibition) [9]: c (inhibition between 50 and 30%: c)
CNS(=O)(=O)c1ccc(Nc2cc(-c3ccccc3OC)ncn2)cc1 [Compound 341]	–	–	–	1 to 10 µM	–
COc1ccccc1-c1cc(Nc2cccc(S(N)(=O)=O)c2)ncn1 [Compound 331]	–	–	–	10 to 250 µM	–
N[C@@H]1CCCC[C@H]1NC(=O)c1ccc(Nc2cc(-c3ccccc3O)ncn2)cc1 [Compound 218]	–	–	–	1 to 10 µM	–
COc1ccccc1-c1cc(Nc2ccc(NS(C)(=O)=O)cc2)ncn1 [Compound 33]	b (inhibition between 80 and 50%: b)	b (inhibition between 80 and 50%: b)	a (inhibition greater than 80%: a)	–	GSK-3β (% inhibition) [1]: b (inhibition between 80 and 50%: b); c-Kit (% inhibition) [6]: b (inhibition between 80 and 50%: b); RSK1 (% inhibition) [7]: c (inhibition between 50 and 30%: c); p56 Lck (% inhibition) [8]: b (inhibition between 80 and 50%: b)
CSc1ccncc1-c1cc(Nc2ccc(C(=O)N[C@@H]3CCCC[C@H]3N)cc2)ncn1 [Compound 224]	–	–	–	1 to 10 µM	–
O=C(O)Cc1ccc(Nc2cc(-c3ccccc3OCc3ccccc3)ncn2)cc1 [Compound 294]	–	–	–	1 to 10 µM	–
COc1ccccc1-c1cc(Nc2ccc(NC(=O)[C@@H](N)c3ccccc3)cc2)ncn1 [Compound 81]	b (inhibition between 80 and 50%: b)	b (inhibition between 80 and 50%: b)	a (inhibition greater than 80%: a)	–	GSK-3β (% inhibition) [1]: b (inhibition between 80 and 50%: b); CDK5 (% inhibition) [3]: a (inhibition greater than 80%: a); Abl (% inhibition) [9]: b (inhibition between 80 and 50%: b)
CNC(C)(C)C(=O)Nc1ccc(Nc2cc(-c3ccccc3OC)ncn2)cc1 [Compound 118]	b (inhibition between 80 and 50%: b)	a (inhibition greater than 80%: a)	b (inhibition between 80 and 50%: b)	–	CDK5 (% inhibition) [3]: b (inhibition between 80 and 50%: b); Abl (% inhibition) [9]: c (inhibition between 50 and 30%: c)
COc1cccc(F)c1-c1cc(Nc2cccc(S(C)(=O)=O)c2)ncn1 [Compound 346]	–	–	–	1 to 10 µM	–
CN1CC[C@H](c2c(O)cc(O)c3c(=O)cc(-c4ccccc4Cl)oc23)[C@H](O)C1 [flavopiridol, reference compound]	–	–	–	–	HBV replication (in words) [11]: inhibits replication
COc1ccccc1-c1cc(Nc2ccc(N3CCOCC3)cc2)ncn1 [Compound 280]	–	–	–	1 to 10 µM	–
